Reference: patent US20240058265A1, “TREATMENT OF OCULAR DISEASES USING ENDOTHELIN RECEPTOR ANTAGONISTS” (Perfuse Therapeutics, Inc., priority 2021, published 2024)
“And” between values parts separate entries of the source, which are not always exact repeats. Identical values can stand only once. Like-named read-outs stand apart in the source and are kept apart here.

Tests used:
[1] = biological target: T1, ETA receptor (Homo sapiens, UniProt P25101); test: Functional potency for ETA receptor; type: biochemical
T1 sequence (P25101 21-427): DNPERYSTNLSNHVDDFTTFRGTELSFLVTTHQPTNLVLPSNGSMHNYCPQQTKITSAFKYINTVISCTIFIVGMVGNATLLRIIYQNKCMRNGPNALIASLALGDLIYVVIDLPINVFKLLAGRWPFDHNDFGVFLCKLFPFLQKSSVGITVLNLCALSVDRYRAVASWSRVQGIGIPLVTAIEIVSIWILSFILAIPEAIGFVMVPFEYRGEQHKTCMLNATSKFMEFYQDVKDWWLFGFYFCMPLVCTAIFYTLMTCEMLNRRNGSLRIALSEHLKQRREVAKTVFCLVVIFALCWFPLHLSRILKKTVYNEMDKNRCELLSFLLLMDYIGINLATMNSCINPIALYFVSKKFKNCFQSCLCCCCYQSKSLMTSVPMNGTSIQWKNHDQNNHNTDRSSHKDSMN
Description: (§1) In the above table, the physicochemical data, e.g., solubility, were obtained following standard protocols known in the field (see, e.g., Reis et al., Mini Rev Med Chem., 2010, 10(11):1071-6; Avdeef et al., Expert Opin Drug Metab Toxicol., 2005, 1(2):325-42; Bharate et al., Comb Chem High Throughput Screen., 2016, 19(6):461-9; and Jain et al., J Pharm Biomed Anal., 2013, 86:11-35.); and the biochemical data, i.e., potency for ETA/ETB, were obtained following the protocols known in the field (see, e.g., Kirkby et al., Br J Pharmacol., 2008, 153(6):1105-19; and Maguire et al., Br J Pharmacol., 2014, 171(24):5555-72.).

[2] = Solubility (pH 2, pH 7, ethyl acetate); type: physicochemical
Description: as §1

[3] = Stability in solid state; type: physicochemical; conditions: 2 h@125° C.
Description: as §1

[4] = Permeability (PAMPA); type: in vitro ADME
Description: as §1

[5] = test system: ET-1 induced vasospasm; test: Rabbit ET-1 induced vasospasm model, retinal blood flow (OCT-A, FA); type: in vivo, rabbit (Oryctolagus cuniculus)
Method: Adult, male Dutch-belted rabbits were given a 20 μl intravitreal injection (IVT) of 0.5 μg of ET-1 followed by a 20 μl intravitreal injection of 10-100 μg Edonentan given 30 min after the ET-1 administration. IOP, optical coherence tomography—angiography (OCT-A), and fluorescein angiograms (FA) were performed at pre-specified time points (30, 45, 60, and 75 min) following ET-1 and Edonentan administration to assess retinal blood flow changes induced by ET-1+/−Edonentan. […] To evaluate the effect of retinal blood flow following intravitreally administered endothelin-1 (ET-1) followed by the antagonist Edonentan in the rabbit, rabbits (Oryctolagus cuniculus) were given a 20 μL intravitreal injection of ET-1 in the left eye followed by a 20 μL intravitreal injection of Edonentan at 2 (or 3) different doses (e.g. 0.1 μg, 0.5 μg, 2.5 μg). The pulse ox, tonometry, optical coherence tomography angiography (OCTA), fluorescein angiography (FA) and retinal leakage scoring were performed for evaluation.

[6] = Pharmacokinetics after topical or oral administration in the rat; type: in vivo, Brown Norway rats
Method: After the administrations, the animals (N=2) were euthanized at different time points (e.g. 4 and 8 hours) and tissues were collected for analysis. List of tissues collected include plasma, retina/retinal pigment epithelium (RPE)/choroid, vitreous humor and aqueous humor.

[7] = Pharmacokinetics after topical administration in the rabbit; type: in vivo, Dutch-belted rabbits; conditions: single topical eye drop 100 μg, 10 minutes, 2 and 7 hours
Method: To determine the pharmacokinetic properties of Edonentan following topical administration in the rabbit, rabbits (Dutch-belted rabbits) received an eye drop in both eyes (100 μg of Edonentan, 35 μL dose volume/eye). After the administrations, the animals (N=2) were euthanized at different time points (e.g. 10 minutes (immediately after pot-dose), 2 and 7 hours) and tissues were collected for analysis. List of tissues collected include plasma, retina, vitreous humor and bulbar conjunctiva.

[8] = test system: laser-induced glaucoma eye; test: Laser-induced glaucoma non-human primate, optic nerve head blood flow (LSFG) after IVT administration; type: in vivo, rhesus macaque, Macaca Mulatta; conditions: IVT 50 μL of 0.02, 0.2 or 2.0 mg/mL, over 6 hours, glaucomatous eye
Method: Non-human primates (rhesus macaque, Macaca Mulatta) were obtained for this study. One eye of each animal underwent induction of elevation of intraocular pressure (TOP) by repeated laser photocoagulation of the trabecular meshwork. Imaging sessions were repeated to monitor the optic nerve head (ONH) and retinal structural changes. A study was performed to compare an experimental glaucoma eye and a contralateral healthy eye (control) of three non-human primates in global average mean blur rate (MBR) and MBR change from baseline over time as an index of ONH blood flow in a laser-induced glaucoma model. More specifically, a vehicle control, 0.02 mg/mL of Edonentan, 0.2 mg/mL of Edonentan, or 2.0 mg/mL of Edonentan was intravitreally administered (50 μL) to a glaucomatous eye of each of three non-human primates (rhesus macaque, Macaca Mulatta). These graphs show the ONH blood flow in the three non-human primates after IVT administration of a vehicle alone (FIG. 7A, FIG. 7E, and FIG. 7I), 0.02 mg/mL of Edonentan (FIG. 7B, FIG. 7F, and FIG. 7J), 0.2 mg/mL of Edonentan (FIG. 7C, FIG. 7G, and FIG. 7K) or 2.0 mg/mL of Edonentan (FIG. 7D, FIG. 7H, and FIG. 7L).

[9] = test system: laser-induced glaucoma eye; test: Laser-induced glaucoma non-human primate, intraocular pressure after topical administration; type: in vivo, rhesus macaque, Macaca Mulatta; conditions: 50 μL eyedrop 2 mg/mL
Method: Non-human primates (rhesus macaque, Macaca Mulatta) were obtained for this study. One eye of each animal underwent induction of elevation of intraocular pressure (TOP) by repeated laser photocoagulation of the trabecular meshwork. Imaging sessions were repeated to monitor the optic nerve head (ONH) and retinal structural changes. A single dose of 0.5% Timolol or a single dose of 2 mg/mL Edonentan was topically administered to three non-human primates that have laser-induced glaucoma in their right eyes (OD) with 1-week wash-out in a randomized order.

SMILES: Cc1onc(NS(=O)(=O)c2ccccc2-c2ccc(-c3ncco3)cc2CN(C)C(=O)CC(C)(C)C)c1C [Edonentan, N-[[2′-[[(4,5-dimethyl-3-isoxazolyl)amino]sulfonyl]-4-(2-oxazolyl)[1,1′-biphenyl]-2-yl]methyl]-N,3,3-trimethylbutanamide]
- Functional potency for ETA and ETB receptors (rating) [1]: High potency
- Specificity ETA vs ETB (rating) [1]: High specificity
- Solubility in Ethyl Acetate (rating) ([2]; ethyl acetate): Good
- solubility ([2]; ethyl acetate, organic solvent or mixture, read-out: Solubility in Ethyl Acetate): > 8900 µg/mL and > 16800 µM
- solubility ([2]; pH 2, simulated gastric fluid, read-out: Solubility at pH 2): < 0.54 µg/mL and < 1 µM
- Solubility at pH 7 ([2]; pH 7, amorphous form): 607 μM
- Stability in Solid State (verdict) [3]: Stable
- Permeability (rating) [4]: Mid-High
- Fluorescein dye velocity as an index of retinal blood flow, dose dependence ([5]; 0.1 μg ET-1 and 0.1, 0.5, 2.5 or 10 μg Edonentan IVT (FIG. 8A, 8B)): dose-response
- Effect of ET-1 (retinal vasoconstriction), fluorescein angiography ([5]; 0.5 μg ET-1 IVT, then 10 μg Edonentan IVT, within 90 min (60 min after Edonentan)): reversed
- Fluorescein dye velocity as an index of retinal blood flow ([5]; healthy rabbits, 0.5 μg ET-1 and 10 μg antagonist IVT (FIG. 3)): improved to control levels
- Detection in aqueous humor after oral administration ([6]; oral, 17 mg/kg): detectable
- Detection in retina/RPE/choroid and vitreous humor after oral administration ([6]; oral, 1.7 and 17 mg/kg): detectable
- Detection in retina/RPE/choroid, aqueous humor and vitreous humor ([6]; topical eye drop 100 μg, 4 and 8 hours): detected
- Detection in plasma, retina, vitreous humor and bulbar conjunctiva [7]: detected in all tissues examined at all timepoints
- ONH blood flow (mean blur rate, LSFG) [8]: improvement of ONH blood flow in a dose-dependent manner
- IOP reduction from pre-dose to post-dose ([9]; Non-human Primate 1, contralateral healthy eye, 120 minutes): about 10%
- IOP reduction from pre-dose to post-dose ([9]; Non-human Primate 1, experimental glaucoma eye, 120 minutes): about 60%
- IOP reduction from pre-dose to post-dose ([9]; Non-human Primate 2, contralateral healthy eye, 15 minutes): about 20%
- IOP reduction from pre-dose to post-dose ([9]; Non-human Primate 2, contralateral healthy eye, 120 minutes): about 0%
- IOP reduction from pre-dose to post-dose ([9]; Non-human Primate 2, experimental glaucoma eye, 15 minutes): about 50%
- IOP reduction from pre-dose to post-dose ([9]; Non-human Primate 2, experimental glaucoma eye, 120 minutes): about 30%
- IOP reduction from pre-dose to post-dose ([9]; Non-human Primate 3, contralateral healthy eye, 15 minutes): about 10%
- IOP reduction from pre-dose to post-dose ([9]; Non-human Primate 3, contralateral healthy eye, 120 minutes): about 40%
- IOP reduction from pre-dose to post-dose ([9]; Non-human Primate 3, experimental glaucoma eye, 15 minutes): about 40%
- IOP reduction from pre-dose to post-dose ([9]; Non-human Primate 3, experimental glaucoma eye, 120 minutes): about 40%
